Measurements reported in patent publication US8106055B2, “Substituted amide compounds” (Gruenenthal GmbH, priority 2007, dated 2012).
Like-named read-outs stand apart in the source and are kept apart here.

Tests used:
[1] = biological target: T1, serotonin (5-HT) reuptake (Rattus norvegicus, UniProt P31652); assay: Inhibition of serotonin (5HT) reuptake in synaptosomes from rat brain; type: biochemical; settings: test concentration of 10 μM; for inhibition at 10 µM: read-out: 5-HT (inhibition of reuptake of serotonin, % inhibition)
T1 construct: synaptosomes are freshly isolated from areas of the rat brain; from tissue; host or cells: rat brain synaptosomes (P2 fraction)
T1 sequence (P31652 whole entry): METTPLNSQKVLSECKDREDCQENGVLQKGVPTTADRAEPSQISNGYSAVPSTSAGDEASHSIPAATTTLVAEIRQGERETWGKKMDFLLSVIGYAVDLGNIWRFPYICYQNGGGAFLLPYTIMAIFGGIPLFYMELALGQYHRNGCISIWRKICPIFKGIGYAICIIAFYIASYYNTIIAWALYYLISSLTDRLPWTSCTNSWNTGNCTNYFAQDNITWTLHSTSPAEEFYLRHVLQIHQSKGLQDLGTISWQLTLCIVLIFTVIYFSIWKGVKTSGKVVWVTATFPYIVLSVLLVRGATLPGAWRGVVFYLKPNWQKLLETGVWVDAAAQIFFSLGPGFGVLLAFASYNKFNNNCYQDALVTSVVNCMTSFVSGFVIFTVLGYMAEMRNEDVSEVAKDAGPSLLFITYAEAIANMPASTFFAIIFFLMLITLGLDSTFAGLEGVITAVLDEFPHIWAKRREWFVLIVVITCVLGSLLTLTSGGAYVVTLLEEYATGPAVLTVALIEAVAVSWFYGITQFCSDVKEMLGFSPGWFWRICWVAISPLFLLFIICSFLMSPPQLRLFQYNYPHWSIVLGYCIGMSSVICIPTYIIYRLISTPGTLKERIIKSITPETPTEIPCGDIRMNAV
Description: Binding data of the compounds on the μ opioid receptor and data on the inhibition of reuptake of serotonin (5-HT) are given in Table 1. The data for the μ receptor were measured at a test concentration of 1 μM, and those for the serotonin reuptake at 10 μM. The values are stated in % inhibition.
Inhibition of Serotonin (5HT) Reuptake
In order to be able to carry out these in vitro studies, synaptosomes are freshly isolated from areas of the rat brain. In each case a so-called “P2” fraction prepared in accordance with the instructions of Gray and Whittaker (E. G. Gray and V. P. Whittaker (1962) J. Anat. 76, 79-88) is prepared. For the NA uptake, these vesicular particles are isolated from the hypothalamus of male rat brains.
A detailed description of the method can be found in the literature (M. Ch. Frink, H.-H. Hennies, W. Englberger, M. Haurand and B. Wilffert (1996) Arzneim.-Forsch./Drug Res. 46 (III), 11, 1029-1036).

human μ opiate receptor = biological target: T2, human μ opiate receptor (Homo sapiens, UniProt P35372); assay: Affinity for the human μ opiate receptor ([3H]-naloxone displacement, CHO-K1 receptor membrane preparation, SPA); type: binding
T2 construct: purchased PerkinElmer Life Sciences, Zaventem, Belgium RB-HOM; host or cells: CHO-K1 cells (membrane preparation)
T2 sequence (P35372 whole entry): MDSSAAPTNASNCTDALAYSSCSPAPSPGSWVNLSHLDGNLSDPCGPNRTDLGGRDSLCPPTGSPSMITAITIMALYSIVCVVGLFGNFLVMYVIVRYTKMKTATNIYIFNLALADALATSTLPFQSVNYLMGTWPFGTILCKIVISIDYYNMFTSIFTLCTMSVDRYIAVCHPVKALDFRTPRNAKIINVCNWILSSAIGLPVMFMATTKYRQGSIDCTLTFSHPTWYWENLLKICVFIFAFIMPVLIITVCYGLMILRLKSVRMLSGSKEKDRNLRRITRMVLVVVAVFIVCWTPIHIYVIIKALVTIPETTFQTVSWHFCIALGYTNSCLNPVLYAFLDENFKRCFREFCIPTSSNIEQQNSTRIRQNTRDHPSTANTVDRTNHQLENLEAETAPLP
Summary of the method: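 Test compounds, 1 nmol/l [3H]-naloxone and CHO-K1 membranes bearing the human μ opiate receptor are combined with WGA-SPA beads. After 90 minutes at room temperature, plates are centrifuged and radioactivity counted. Specific-binding inhibition at 1 μmol/l is given in percent.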

[2] = biological target: T3, human bradykinin 1 receptor (B1R) (Homo sapiens, UniProt P46663); assay: Functional investigation on the human bradykinin 1 receptor (B1R), Ca2+ FLIPR assay in CHO K1 hB1R cells; type: cell-based; settings: CHO-K1, B1R antagonism human; test substance 10 μM; Ca2+ FLIPR, CHO K1 hB1R cells; read-out: B1R Ant. h [10 μM] % Inhibition
T3 construct: expressed in transfected cells; host or cells: CHO K1 cells
T3 sequence (P46663 1-353): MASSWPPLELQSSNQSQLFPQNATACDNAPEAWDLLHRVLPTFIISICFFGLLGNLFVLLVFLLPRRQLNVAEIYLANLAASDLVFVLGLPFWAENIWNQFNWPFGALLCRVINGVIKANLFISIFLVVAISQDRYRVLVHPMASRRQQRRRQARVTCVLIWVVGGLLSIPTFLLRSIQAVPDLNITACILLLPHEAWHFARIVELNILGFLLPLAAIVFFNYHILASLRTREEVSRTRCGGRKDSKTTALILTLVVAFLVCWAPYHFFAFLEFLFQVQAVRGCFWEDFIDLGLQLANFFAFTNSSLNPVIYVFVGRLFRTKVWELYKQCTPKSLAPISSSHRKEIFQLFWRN
Summary of the method: (§1)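 Fluo-4 Ca2+ readout, peak fluorescence. Stable CHO K1 transfectants; compound pre-incubated 10-20 min, then EC80 agonist—Lys-Des-Arg9-BK for hB1R, Des-Arg9-BK for rB1R. % inhibition vs maximal inhibition; IC50 from multiple concentrations, duplicate/triplicate, ≥2 independent runs.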

[3] = biological target: T4, bradykinin 1 receptor (B1R) of the rat (Rattus norvegicus, UniProt P97583); assay: Functional investigation on the rat bradykinin 1 receptor (B1R), Ca2+ FLIPR assay in CHO K1 rB1R cells; type: cell-based; settings: CHO-K1, B1R antagonism rat; test substance 10 μM; Ca2+ FLIPR, CHO K1 rB1R cells; read-out: B1R Ant. r [10 μM] % Inhibition
T4 construct: expressed in transfected cells; host or cells: CHO K1 cells
T4 sequence (P97583 1-337): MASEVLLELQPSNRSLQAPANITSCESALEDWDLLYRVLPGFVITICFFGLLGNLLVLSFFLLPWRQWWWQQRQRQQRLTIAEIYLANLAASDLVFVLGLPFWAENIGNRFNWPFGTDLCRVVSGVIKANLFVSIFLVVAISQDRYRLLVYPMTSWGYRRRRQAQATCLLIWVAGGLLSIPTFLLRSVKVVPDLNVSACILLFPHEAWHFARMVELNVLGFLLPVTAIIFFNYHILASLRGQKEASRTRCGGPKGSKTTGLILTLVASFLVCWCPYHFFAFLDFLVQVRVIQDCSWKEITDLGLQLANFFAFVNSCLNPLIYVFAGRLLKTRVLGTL
Summary of the method: as §1

[4] = 1.5 h, Table 3, to be read in the same way as Table 1, test concentration 1 μM, read-out: μ

CC(Oc1ccccc1)C(=O)NCC1CCC(C(c2cccc(F)c2)N(C)C)CC1 (stereo not drawn) [Example 122, N-((4-((dimethylamino)(3-fluorophenyl)methyl)cyclohexyl)methyl)-2-phenoxypropanamide]
5-HT (inhibition of reuptake of serotonin, % inhibition) ([1]; 10 µM): 57%

CC(Oc1ccccc1)C(=O)NC1CCC(C(c2cccc(F)c2)N(C)C)CC1 (stereo not drawn) [Example 153, N-(4-((dimethylamino)(3-fluorophenyl)methyl)cyclohexyl)-2-phenoxypropanamide]
inhibition at 10 µM [1]: 27%

CCOC(=O)C(=O)NCC1CCC(C(CCc2ccccc2)N(C)C)CC1 (stereo not drawn) [Example 421]
5-HT (inhibition of reuptake of serotonin, % inhibition) [1]: 26% | μ (binding on the μ opioid receptor, % inhibition) (human μ opiate receptor; test concentration of 1 μM): 57%

CC(=O)OC(C(=O)NCC1CCC(C(c2ccc(Cl)cc2)N(C)C)CC1)c1ccccc1 (stereo not drawn) [Example 360]
5-HT (inhibition of reuptake of serotonin, % inhibition) [1]: 15% | μ (binding on the μ opioid receptor, % inhibition) (human μ opiate receptor; test concentration of 1 μM): 66%

CC(Oc1ccccc1)C(=O)NCCC1CCC(C(c2ccccc2)N(C)C)CC1 (stereo not drawn) [Example 270]
5-HT (inhibition of reuptake of serotonin, % inhibition) [1]: 73% | μ (binding on the μ opioid receptor, % inhibition) (human μ opiate receptor; test concentration of 1 μM): 77%

CC(Oc1ccccc1)C(=O)NCC1CCC(C(c2cccc(F)c2)N(C)C)CC1 (stereo not drawn) [Example 108, N-((4-((dimethylamino)(3-fluorophenyl)methyl)cyclohexyl)methyl)-2-phenoxypropanamide]
inhibition at 10 µM [1]: 63% | inhibition at 1 µM (human μ opiate receptor; test concentration of 1 μM, read-out: μ (binding on the μ opioid receptor, % inhibition)): 91%

CN(C)C(c1cccc(F)c1)C1CCC(NC(=O)COc2ccc(Cl)cc2)CC1 (stereo not drawn) [Example 505]
5-HT (inhibition of reuptake of serotonin, % inhibition) [1]: 59% | μ (binding on the μ opioid receptor, % inhibition) (human μ opiate receptor; test concentration of 1 μM): 42%

CN(C)C(CCc1ccccc1)C1CCC(NC(=O)COCc2ccccc2)CC1 (stereo not drawn) [Example 582]
5-HT (inhibition of reuptake of serotonin, % inhibition) [1]: 75% | μ (binding on the μ opioid receptor, % inhibition) (human μ opiate receptor; test concentration of 1 μM): 9%

CN(C)C(c1ccc(Cl)cc1)C1CCC(CCNC(=O)COCc2ccccc2)CC1 (stereo not drawn) [Example 482]
5-HT (inhibition of reuptake of serotonin, % inhibition) [1]: 55% | μ (binding on the μ opioid receptor, % inhibition) (human μ opiate receptor; test concentration of 1 μM): 47%

CC(Oc1ccccc1)C(=O)NCC1CCC(C(c2cccc(F)c2)N(C)C)CC1 (stereo not drawn) [Example 79, N-((4-((dimethylamino)(3-fluorophenyl)methyl)cyclohexyl)methyl)-2-phenoxypropanamide]
5-HT (inhibition of reuptake of serotonin, % inhibition) ([1]; 10 µM): 64%

CC(Oc1ccccc1)C(=O)NCC1CCC(C(c2ccccc2)N(C)C)CC1 (stereo not drawn) [Example 50, N-((4-((dimethylamino)(phenyl)methyl)cyclohexyl)methyl)-2-phenoxypropanamide]
inhibition at 10 µM [1]: 65%

CC(Oc1ccccc1)C(=O)NC1CCC(C(CCc2ccccc2)N(C)C)CC1 (stereo not drawn) [Example 577]
5-HT (inhibition of reuptake of serotonin, % inhibition) ([1]; 10 µM): 16% | μ (binding on the μ opioid receptor, % inhibition) (human μ opiate receptor; test concentration of 1 μM, 1 µM): 14%

CN(C)C(c1cccc(F)c1)C1CCC(NC(=O)COCc2ccccc2)CC1 (stereo not drawn) [Example 353]
5-HT (inhibition of reuptake of serotonin, % inhibition) [1]: 60% | μ (binding on the μ opioid receptor, % inhibition) (human μ opiate receptor; test concentration of 1 μM): 67%

CC(Oc1ccccc1)C(=O)NCC1CCC(C(c2ccc(Cl)cc2)N(C)C)CC1 (single isomer, unassigned) [Example 238]
5-HT (inhibition of reuptake of serotonin, % inhibition) ([1]; 10 µM): 38% | μ (binding on the μ opioid receptor, % inhibition) (human μ opiate receptor; test concentration of 1 μM): 81%

CN(C)C(c1ccccc1)C1CCC(CCNC(=O)COCc2ccccc2)CC1 (stereo not drawn) [Example 134, 2-(benzyloxy)-N-(2-(4-((dimethylamino)(phenyl)-methyl)cyclohexyl)ethyl)acetamide]
inhibition at 10 µM [1]: 67%

CC(Oc1ccccc1)C(=O)NC1CCC(C(c2ccccc2)N(C)C)CC1 (stereo not drawn) [Example 181, N-(4-((dimethylamino)(phenyl)methyl)cyclohexyl)-2-phenoxypropanamide]
inhibition at 10 µM [1]: 46%

CC(Oc1ccccc1)C(=O)NCC1CCC(C(c2cccs2)N(C)C)CC1 (stereo not drawn) [Example 2, N-((4-((dimethylamino)(thiophen-2-yl)methyl)cyclohexyl)methyl)-2-phenoxypropanamide]
inhibition at 10 µM [1]: 69%

COc1cc(C)c(S(=O)(=O)N2CCCC(COCC(=O)NCC3CCC(C(CCc4ccccc4)N4CCCC4)CC3)C2)c(C)c1 (stereo not drawn) [Example 757, 2-((1-(4-methoxy-2,6-dimethylphenylsulfonyl)piperidin-3-yl)methoxy)-N-((4-(3-phenyl-1-(pyrrolidin-1-yl)propyl)cyclohexyl)methyl)acetamide]
inhibition at 10 µM [2]: 103% | inhibition at 10 µM [3]: 100% | inhibition at 1 µM (human μ opiate receptor; [4]): 32%

COc1cc(C)c(S(=O)(=O)N(C)CCOCC(=O)NC2CCC(C(c3ccccc3)N3CCOCC3)CC2)c(C)c1 (stereo not drawn) [Example 681, 2-(2-(4-methoxy-N,2,6-trimethylphenylsulfonamido)ethoxy)-N-(4-(morpholino(phenyl)methyl)cyclohexyl)acetamide]
inhibition at 10 µM [2]: 98% | inhibition at 10 µM [3]: 98% | inhibition at 1 µM (human μ opiate receptor; [4]): 10%

COc1cc(C)c(S(=O)(=O)N2CCCC(OCC(=O)NC3CCC(C(CCc4ccccc4)N4CCCCC4)CC3)C2)c(C)c1 (stereo not drawn) [Example 675, 2-(1-(4-methoxy-2,6-dimethylphenylsulfonyl)piperidin-3-yloxy)-N-(4-(3-phenyl-1-(piperidin-1-yl)propyl)cyclohexyl)acetamide]
inhibition at 10 µM [2]: 97% | inhibition at 10 µM [3]: 89% | inhibition at 1 µM (human μ opiate receptor; [4]): 37%

COc1cc(C)c(S(=O)(=O)N2CCCCC2COCC(=O)NC2CCC(C(c3ccccc3)N3CCCC3)CC2)c(C)c1 (stereo not drawn) [Example 652, 2-((1-(4-methoxy-2,6-dimethylphenylsulfonyl)piperidin-2-yl)methoxy)-N-(4-(phenyl(pyrrolidin-1-yl)methyl)cyclohexyl)acetamide]
inhibition at 10 µM [2]: 101% | inhibition at 10 µM [3]: 105% | inhibition at 1 µM (human μ opiate receptor; [4]): 70%

O=C(COCC1CCCN(S(=O)(=O)c2c(Cl)cc(Cl)cc2Cl)C1)NC1CCC(C(CCc2ccccc2)N2CCCCC2)CC1 (stereo not drawn) [Example 679, N-(4-(3-phenyl-1-(piperidin-1-yl)propyl)cyclohexyl)-2-((1-(2,4,6-trichlorophenylsulfonyl)piperidin-3-yl)methoxy)acetamide]
inhibition at 10 µM [2]: 39% | inhibition at 10 µM [3]: 34% | inhibition at 1 µM (human μ opiate receptor; [4]): 51%

CN(CCOCC(=O)NCC1CCC(C(CCc2ccccc2)N2CCOCC2)CC1)S(=O)(=O)c1c(Cl)cc(Cl)cc1Cl (stereo not drawn) [Example 715, N-((4-(1-morpholino-3-phenylpropyl)cyclohexyl)methyl)-2-(2-(2,4,6-trichloro-N-methylphenylsulfonamido)ethoxy)acetamide]
inhibition at 10 µM [2]: 55% | inhibition at 10 µM [3]: 24% | inhibition at 1 µM (human μ opiate receptor; [4]): 10%

CN(C)C(c1ccccc1)C1CCC(CNC(=O)CCOCN(C)S(=O)(=O)c2c(Cl)cc(Cl)cc2Cl)CC1 (stereo not drawn) [Example 624, N-[4-(dimethylaminophenylmethyl)-cyclohexylmethyl]-3-{[methyl-(2,4,6-trichlorobenzenesulfonyl)-amino]-methoxy}-propionamide]
inhibition at 10 µM [2]: 104% | inhibition at 10 µM [3]: 81% | inhibition at 1 µM (human μ opiate receptor; 1.5 h, Table 2, test concentration 1 μM, read-out: μ receptor): 98%

COc1cc(C)c(S(=O)(=O)N2CCCC(OCC(=O)NC3CCC(C(c4ccccc4)N4CCCC4)CC3)C2)c(C)c1 (stereo not drawn) [Example 647, 2-(1-(4-methoxy-2,6-dimethylphenylsulfonyl)piperidin-3-yloxy)-N-(4-(phenyl(pyrrolidin-1-yl)methyl)cyclohexyl)acetamide]
inhibition at 10 µM [2]: 92% | inhibition at 10 µM [3]: 94% | inhibition at 1 µM (human μ opiate receptor; [4]): 49%
